According to patent publication US20070298413A1, “Topoisomerase Modulators Assays” (AstraZeneca AB, priority 2003, published 2007):
≈ marks a conversion by molar mass, not a printed value. Where two headings read alike, the source gives them in different places.

Columns and labels:
H. influenzae = assay: minimum inhibitory concentration (MIC); type: cell-based; settings: Haemophilus influenzae
[1] = system: bacteria that carry a DNA relaxation-stimulated lacZ gene on a plasmid (pRAS101, 19.4, pSB2.his); assay: plate lawn technique on X-Gal medium (blue ring); type: cell-based, E. coli; settings: spotted onto lawn of bacteria, overnight growth at 37° C.; clones pRAS101, 19.4 and pSB2.his similar
Description: The principle of the screen is based on the observation that if known gyrase inhibitors are spotted onto X-Gal medium containing bacteria that carry a DNA relaxation-stimulated lacZ gene on a plasmid, clear zones of inhibition surrounded by a blue ring are formed after overnight growth. The blue ring presumably forms at the drug concentration where optimum relaxation-stimulation of the reporter gene has occurred before the cells are killed.
The following three clones were used: a) clone pRAS101 containing the gyrA promoter linked to the β-galactosidase gene; b) clone 19.4 (found by method described in section 3.3); and c) clone pSB2.his containing the hisD promoter linked to the β-galactosidase gene.
Cultures were grown overnight and diluted 1:1000 in (melted) L-agar cooled to 45° C. containing 50 μg/mL Ap and 60 μg/mL X-Gal. The medium was poured into 15×150 mm petri dishes immediately. After it had solidified, known gyrase inhibitors were applied automatically onto the solid agar surface using a Tomtec Quadra 96 machine as follows: 20 μg nalidixic acid (Nx), 100 μg novobiocin (Novo), 2 μg ciprofloxacin (Cipro), 10 μg coumermycin (Cou), 2 μg cinoxacin (Cinox), 2 μg pefloxacin (Pef), 2 μg fleroxacin (Fle), 2 μg flumequine (Flu) and 2 μg norfloxacin (Nor). […]

[2] = system: clone 19.4 (relaxation-stimulated promoter upstream of lacZ in pSB2); assay: microtiter plate β-galactosidase assay, clone 19.4; type: cell-based, E. coli; settings: nalidixic acid 200 μg/ml, 2 hours at 37° C., treated vs control culture
Description: The T4 terminator (T4 t) and lacZ gene were inserted into a plasmid expression vector pTB244 to create the construct pSB2. In this construct, the transcription of the lacZ gene, without a promoter, is prevented by the upstream T4 terminator, such that insertion of a promoter is necessary for lacZ expression. A random E. coli DNA library was constructed by inserting Escherichia coli chromosomal Sau3A fragments into the BamHI site of the screening vector pSB2, upstream of the promoter-less lacZ gene.
The library was transformed into the lacZ^− E. coli host strain MSD1011 (MM294 Δlac=E. coli K12 hsdR Δlac). […] Blue transformants were screened for the presence of relaxation-stimulated promoters using the microtiter plate β-galactosidase assay.
The β-galactosidase assays were carried out in 96-well, flat bottom microtiter plates. Blue (lacZ^+) ampicillin-resistant colonies of all sizes and shades of blue were purified, inoculated into 200 μl media (L-broth containing 50 μg/ml ampicillin) and incubated overnight at 37° C. […] Before carrying out the β-galactosidase assay, absorbance WAS read automatically on the Molecular Devices Microplate Reader at 595 nm in order to measure the differences in the cell titers between control and treated cultures. […] The plates were read at 28° C. on a Molecular Devices Microplate Reader at 420 nm for 2 mins at 0.09 sec intervals.

[3] = system: pRAS101, gyrA promoter linked to a lacZ gene; assay: microtiter plate β-galactosidase assay, pRAS101 positive control; type: cell-based, E. coli; settings: nalidixic acid 200 μg/ml, 2 hours at 37° C.
Method: The β-galactosidase assays were carried out in 96-well, flat bottom microtiter plates. Blue (lacZ^+) ampicillin-resistant colonies of all sizes and shades of blue were purified, inoculated into 200 μl media (L-broth containing 50 μg/ml ampicillin) and incubated overnight at 37° C. Cultures were then diluted 1:20 into fresh broth and incubated for 1.5 hours at 37° C. with shaking at 230 rpm to mid log phase. At this point half of each culture was transferred to a duplicate microtitre plate to which nalidixic acid had been added to give a final concentration of 200 μg/ml. Both plates were incubated at 37° C. for 2 hours to allow expression of the reporter gene that was then assayed. Before carrying out the β-galactosidase assay, absorbance WAS read automatically on the Molecular Devices Microplate Reader at 595 nm in order to measure the differences in the cell titers between control and treated cultures. 25 μl of β-galactosidase assay emulsion (prepared as follows: 5 mL ONPG (O-nitrophenyl-β-D-galactopyranodside) at 4 mg/ml, 5 mL 1× Z-buffer, 0.3 mL 1% SDS, 0.2 mL chloroform, 0.2 mL ether), was added to each well. The plates were read at 28° C. on a Molecular Devices Microplate Reader at 420 nm for 2 mins at 0.09 sec intervals. […]

Question: `CC1(C)S[C@@H]2[C@H](NC(=O)[C@H](N)c3ccccc3)C(=O)N2[C@H]1C(=O)O` [ampicillin] was tested. Which MIC (H. influenzae; measured MIC against H. influenzae, read-out: MIC) did it give?
Answer: 0.125 µg/mL (≈ 0.358 µM)

Question: How did the “stimulation of the DNA relaxation-stimulated reporter gene (blue ring)” value [1] turn out when `O=C(N[C@H](CO)[C@H](O)c1ccc([N+](=O)[O-])cc1)C(Cl)Cl` [chloramphenicol] was run?
Answer: little to no stimulation

Question: Which results are given for `CCn1cc(C(=O)O)c(=O)c2ccc(C)nc21` [nalidixic acid]?
Answer: relaxation stimulated transcription ratio [2]: 6.1; stimulation ratio (average) [3]: 3.1 fold

Question: For `CO[C@@H]1[C@@H](OC(N)=O)[C@@H](O)[C@H](Oc2ccc3c(O)c(NC(=O)c4ccc(O)c(CC=C(C)C)c4)c(=O)oc3c2C)OC1(C)C` [novobiocin], which MIC (H. influenzae) is on record?
Answer: 0.125 µg/mL (≈ 0.204 µM)
